Strand notation (5' to 3'): a small letter for the sugar, then the base; units joined by * are phosphorothioate-linked, units joined directly phosphodiester-linked; [ ] holds rarer units or linkages, { } end groups; capitals alone tell only the bases. [Uhd] = commercial lipid-conjugated uridine analogue Uhd (C16), from Hongene, reference; {VP} = (thio)vinylphosphonate on the antisense 5' nucleotide, as listed; e = 2'-O-(2-methoxyethyl) (MOE); m = 2'-O-methyl; f = 2'-fluoro
What was measured:
[1] = system: target gene SOD1; experiment: Test Example 6: inhibitory activity of NM073, NM074 conjugated siRNA sequences on SOD1 by intrathecal administration to rats; type: in vivo, SD rats; details: D28; for Cerebellum % Mean value of inhibition rate / Cortex % Mean value of inhibition rate / Hippocampus % Mean value of inhibition rate / Cervical segment % Mean value of inhibition rate / Lumbar segment % Mean value of inhibition rate / Thoracic segment % Mean value of inhibition rate: intrathecal, 900 μg per rat; for Cortex % Mean value of inhibition rate: cerebral cortex; for Cervical segment % Mean value of inhibition rate: spinal cord cervical segment; for Lumbar segment % Mean value of inhibition rate: spinal cord lumbar segment; for Thoracic segment % Mean value of inhibition rate: spinal cord thoracic segment
Procedure: 6-8 Week-old SD rats were randomly grouped by body weight. Rats in each group were administered with siRNA by intrathecal administration, with an administration dose of 900 μg per rat. Injection was administered from rat spinal cord L5-L6, with an administration volume of 40 μL. Needle was retained for 2 min after completion of injection, and then slowly withdrawn. PBS control group was administered with the same volume of siRNA conjugate-free PBS solution. The day of administration was recorded as 0 day (D0), and the rats were sacrificed at observation point after administration. Different segments of spinal cord and different regions of brain were respectively taken and stored in the RNAlater.
(§1) RNA extraction: the above tissue samples were taken out from the RNAlater, and smashed for 60 s in Tissuelyser type II full-automatic tissue homogenizer, and total RNAs of various tissue samples were extracted using the full-automatic nucleic acid extraction instrument and the nucleic acid extraction kit from Zhejiang Hanwei Science and Technology Co. Ltd. according to methods described in instructions.
(§2) Reverse transcription reaction: 1 μg of the extracted total RNAs of the tissue samples were taken, and configured into 20 μL of reverse transcription system according to a method described in kit instructions by using a reverse transcription kit (Reverse Transcription System, A3500) from Promega Corporation and selecting Oligo (dT)15 reverse transcription primers, and the reverse transcription reaction was completed. After the reaction was ended, 80 μL of RNase-Free water was added into the reverse transcription system to provide cDNA solution for Real-time PCR detection.
(§3) Real-time PCR detection: 20 μL of Real-time PCR reaction system per PCR detection well was configured according to a method described in kit instructions using SYBR™ Select Master Mix (Catalog number: 4472908) reagent from ABI company. Each detection system contained 5 μL of cDNA template obtained from the above reverse transcription reaction, 10 μL of SYBR™ Select Master Mix, 0.5 μL of 10 μM upstream primers, 0.5 μL of 10 μM downstream primers, and 4 μL of RNase-Free H2O. The configured reaction system was subjected to Real-time PCR amplification on ABI StepOnePlus PCR instrument by a three-step method, wherein an amplification procedure was pre-denaturation at 95° C. for 10 min, then denaturation at 95° C. for 30 s, annealing at 60° C. for 30 s, and extension at 72° C. for 30 s; and processes of denaturation, annealing, and extension were repeated for 40 cycles. Gene expression differences were calculated by the ΔΔCt method after completion of the procedure.
(§4) In the real-time fluorescence quantitative PCR method, relative quantitative calculation of remaining expression level and inhibition rate of gene mRNA of interest in various test groups was performed by the ΔΔCt method, and the calculation method is as follows:
The present test example evaluated, by an evaluation method for inhibitory activity on a target gene by intrathecal administration to rats, the inhibitory activity of siRNA sequence RZ899090 with the NM073 conjugation at Position 4, siRNA sequence RZ899091 with the NM074 conjugation at Position 4 and siRNA control sequence RZ899093 with the Uhd conjugation on the target gene SOD1 of interest in spinal cord and brain of rats. The above conjugation vectors were different in that NM073 was C18 aliphatic chain and NM074 was C20 aliphatic chain.
6-8 Week-old SD rats were randomly grouped by body weight, 5 per group, 4 groups in total. Rats in each group were dosed with the above siRNA conjugates by intrathecal administration, with an administration dose of 900 μg per rat, and an administration volume of 40 μL. PBS control group was administered with the same volume of siRNA conjugate-free PBS solution. The day of administration was recorded as D0, and the rats were sacrificed on D28 after administration. […]

[2] = system: target gene SOD1; experiment: Test Example 8: inhibitory activity on target gene SOD1 in adipose tissues in different parts of mice; type: in vivo, C57BL/6j mice; details: D14; for Subcutaneous fat % Mean value of inhibition rate: abdominal subcutaneous fat; for Subcutaneous fat % Mean value of inhibition rate / Brown fat on back % Mean value of inhibition rate / Paragonadal fat % Mean value of inhibition rate: tail vein injection 5 mg/kg
Procedure: as §1, §2, §3, §4
The present test example evaluated, by an evaluation method for inhibitory activity on a target gene in mice, the inhibitory activity of siRNA sequence RZ899090 with the sense strand with the NM073 conjugation at Position 4, siRNA sequence RZ899091 with the sense strand with the NM074 conjugation at Position 4, siRNA sequence RZ899078 with the sense strand with the NM202 conjugation at Position 6 and siRNA reference sequence RZ899093 with the sense strand with the Uhd conjugation at Position 4, siRNA reference sequence RZ899076 with the sense strand with the NM200 conjugation at Position 4 on the target gene SOD1 in adipose tissues of interest in mice.
(§5) 6-8 Week-old C57BL/6j mice were randomly grouped by body weight, 5 per group, 6 groups in total. Mice in each group were dosed with the above siRNA conjugates by tail vein injection, with an administration dose of 5 mg/kg per mouse, and an administration volume of 150 μL. PBS control group was administered with the same volume of siRNA conjugate-free PBS solution. The day of administration was recorded as D0, and 5 mice in each group were sacrificed on D14 after administration. Paragonadal fat, abdominal subcutaneous fat, and brown fat on back were respectively taken. RNA extraction, reverse transcription, and real-time fluorescence quantitative detection were performed on various tissues according to the above method, and gene expression differences were calculated by the above ΔΔCt method.

[3] = system: target gene SOD1; experiment: Test Example 9: inhibitory activity of lipid conjugated siRNA sequences on SOD1 in mouse muscle tissues; type: in vivo, C57BL/6j mice; details: D14; for Diaphragm % Mean value of inhibition rate / Heart % Mean value of inhibition rate / Left quadriceps muscle % Mean value of inhibition rate: tail vein injection 5 mg/kg; for Left quadriceps muscle % Mean value of inhibition rate: left hind leg quadriceps muscle
Procedure: as §1, §2, §3, §4
The present test example evaluated, by an evaluation method for inhibitory activity on a target gene in mice, the inhibitory activity of siRNA sequence RZ899090 with the sense strand with the NM073 conjugation at Position 4, siRNA sequence RZ899091 with the sense strand with the NM074 conjugation at Position 4, siRNA sequence RZ899078 with the sense strand with the NM202 conjugation at Position 6 and siRNA reference sequence RZ899093 with the sense strand with the Uhd conjugation at Position 4, siRNA reference sequence RZ899076 with the sense strand with the NM200 conjugation at Position 4 on the target gene SOD1 of interest in muscle tissues in different parts of mice.
as §5, with “Tissues such as left hind leg quadriceps muscle, diaphragm,” for “Paragonadal fat, abdominal subcutaneous fat,”, “heart tissues” for “brown fat on back”, “taken and stored in the RNAlater.” for “taken.”

Row | Substance | Cerebellum % Mean value of inhibition rate [1] | Cortex % Mean value of inhibition rate [1] | Hippocampus % Mean value of inhibition rate [1] | level of inhibition on the target gene compared with the Uhd control conjugate (RZ899093) ([1]; intrathecal 900 μg per rat) | Cervical segment % Mean value of inhibition rate [1] | Lumbar segment % Mean value of inhibition rate [1] | Thoracic segment % Mean value of inhibition rate [1] | Subcutaneous fat % Mean value of inhibition rate [2] | Brown fat on back % Mean value of inhibition rate [2] | inhibitory activity compared with the NM200 conjugated reference sequence RZ899076 ([2]; paragonadal fat and brown fat on back, tail vein 5 mg/kg) | Paragonadal fat % Mean value of inhibition rate [2] | inhibitory action on the target gene compared with RZ899076 ([2]; subcutaneous fat, tail vein 5 mg/kg) | Diaphragm % Mean value of inhibition rate [3] | inhibitory activity compared with the NM200 conjugated reference sequence RZ899076 ([3]; heart tissues, tail vein 5 mg/kg) | Heart % Mean value of inhibition rate [3] | Left quadriceps muscle % Mean value of inhibition rate [3] | inhibitory action on the left quadriceps muscle and diaphragm ([3]; left quadriceps muscle and diaphragm, tail vein 5 mg/kg)
1 | RZ899091: siRNA sequence with the sense strand with the NM074 (C20) conjugation at Position 4; SEQ ID NO: 16 / 23 (sense UUUNAAUCCUCACUCUAAA; antisense UUUAGAGUGAGGAUUAAAAUG; NM074 (C20) conjugate at sense position 4; modified_base 1..2 OTHER; 2'-methoxy and 5'-thiophosphate modified nucleotides; modified_base 3 OTHER; 2'-methoxy modified nucleotide; modified_base 4 OTHER; n is the synthetic nucleotide analog NM074 as described in the disclosure.; modified_base 5..6 OTHER; 2'-methoxy modified nucleotides; modified_base 7..10 OTHER; 2'-fluoro modified nucleotides; modified_base 11..19 OTHER; 2'-methoxy modified ; modified_base 1 OTHER; 2'-methoxy and 5'-thiovinylphosphonate modified nucleotide; modified_base 2 OTHER; 2'-fluoro and 5'-thiophosphate modified …) | 73.86% | 28.78% | 70.69% | superior level of inhibition on the target gene in the spinal cord segment, cerebellum, and hippocampus | 92.15% | 95.17% | 98.15% | 67.17% | 80.97% | equivalent or superior inhibitory activity | 75.20% | substantially comparable | 39.22% | superior inhibitory activity | 76.73% | 33.02% | certain inhibitory action
2 | RZ899093: siRNA reference sequence with the sense strand with the Uhd (C16) conjugation at Position 4; SEQ ID NO: 13 / 23 (sense mU*mU*mU[Uhd]mAmAfUfCfCfUmCmAmCmUmCmUmAmAmA; antisense {VP}-mU*fU*mUmAmGfAmGmUmGmAmGfGmAfUeUfAmAmAmA*mU*mG) [reference compound] | 55.89% | 36.29% | 52.87% |  | 69.68% | 95.31% | 94.90% | 85.92% | 77.13% |  | 76.20% |  | 64.76% |  | 51.52% | 56.55% | 

Source: patent publication US20260132165A1, “MODIFIED NUCLEOSIDE ANALOGUE AND USE THEREOF, AND NUCLEOSIDE ANALOGUE-CONTAINING DOUBLE-STRANDED OLIGONUCLEOTIDE AND USE THEREOF” (RIGERNA THERAPEUTICS (BEIJING) CO., LTD., priority 2023, published 2026)
